Patent US6630303B1, “Methods of screening for compounds active on Staphylococcus aureus target genes” (priority 1995, dated 2003)

Columns and labels:
[1] = tested on: ts S. typhimurium mutant alleles of the gyrase subunit A; assay: Hypersusceptibility (MIC) of S. typhimurium gyrA ts mutants at semi-permissive temperature; type: cell-based, Salmonella typhimurium
Description: As an illustration of the hypersusceptibility profiles for a group of bacterial ts mutant strains, the minimal inhibitory concentrations (MICs) of various drugs and toxic agents were determined for a set of Salmonella typhimurium temperature-sensitive essential gene mutants.
The MICs were measured by using a standard micro broth dilution technique following the recommendations of the National Committee for Clinical Laboratory Standards (1994). Bacteria were first grown in Mueller-Hinton broth at 30° C., diluted to 10^5 cfu/ml and used to inoculate 96-microwell plates containing two-fold dilutions of antibiotics in Mueller-Hinton broth. Plates were incubated for 20 h at a semi-permissive temperature (35° C.) and the MIC was determined as the lowest dilution of antibiotic preventing visible growth.
A two-fold difference in the susceptibility level of the mutant strain compared to that of the parental strain is within the limits of the experimental variation and thus a ≧4-fold decrease in MIC was considered as a significant hypersusceptibility.
The specific hypersensitivity of temperature sensitive mutations in a known target to inhibitors of that target is shown in FIG. 1 with the susceptibility profile of three ts S. typhimurium mutant alleles of the gyrase subunit A (gyrA212, gyrA215 and gyrA216) grown at a semi-permissive temperature (35° C.).

[2] = tested on: Salmonella wild type parent strain; assay: Carbon source utilization profile (gene sensor methodology); type: cell-based; details: sublethal concentration; carbon source not used by the dapA or murCEFG mutant
From the text: The growth conditional mutants are also used in gene sensor methodology, e.g., using carbon utilization profiles. Ts mutants fail to metabolize different carbon sources in semi-permissive growth conditions. The carbon sources not utilized by a specific mutant or group of mutants provide additional phenotypes associated with the crippled essential function. Moreover, some of these carbon source markers were also not used by the wild type strain exposed to sub-MIC concentrations of known drugs affecting the same specific cellular targets or pathways.

[3] = mutant gyrA222, semi-permissive temperature 35° C.
[4] = mutant gyrA215, semi-permissive temperature 35° C.

Compound | hypersusceptibility compared to wild-type parent strain [1, 3] | carbon source metabolism [2] | hypersusceptibility compared to wild-type parent strain [1, 4] | hypersusceptibility compared to wild-type parent strain ([1]; mutant gyrA276, semi-permissive temperature 35° C.)
O=C(O)c1cn(C2CC2)c2cc(N3CCNCC3)c(F)cc2c1=O [ciprofloxacin] | hypersusceptibility |  |  | 
Cn1nnnc1SCC1=C(C(=O)O)N2C(=O)[C@@H](NC(=O)[C@H](O)c3ccccc3)[C@H]2SC1 [cefamandole] |  | prevented the Salmonella wild type parent strain from metabolizing the same carbon source |  | 
CCn1cc(C(=O)O)c(=O)c2cc(F)c(N3CCNCC3)cc21 [norfloxacin] | hypersusceptibility |  | hypersusceptibility | 
coumermycin |  |  | hypersusceptibility | hypersusceptibility
